Results from patent US5101054A, “Novel fluorine-containing platinum complex” (priority 1989, dated 1992).
Read-outs that look alike come from different tables or passages of the source.

What was measured:
[1] = tested on: Mouse leukemia cells L1210; assay: Experiment 1 anti-tumor activity test in L1210 implanted CDF1 mice; format: in vivo; settings: for T/C: L1210 i.p. implanted CDF1 mice; for Number of survived mice (on 30th day): survivors/total on 30th day
Procedure: Mouse leukemia cells L1210 (1×10^5) were implanted intraperitoneally to CDF1 mice (female, aged: 8 weeks) on the 0 day of implantation. CDDP and CBDCA were used as a reference. The anti-tumor activity of the platinum complexes in L1210 implanted mice were expressed by the T/C value, which was determined according to the following equation, and by the number of mice which survived until the 30th day of implantation. [formula]

[2] = mouse, in vivo
Procedure: (§1) Test compounds were administered to ICR mice (aged: 8 weeks) on the 1st day, the 5th day and the 9th day. The blood was collected therefrom on the 12th day, and the concentrations of blood urea nitrogen (BUN) were determined.
(§2) *Control group: druguntreated normal mouse

[3] = tested on: cisplatin resistant mouse leukemia cells L1210 (L1210/CDDP); assay: Experiment 2 growth inhibition of cisplatin resistant L1210/CDDP cells; format: cell-based
[4] = Experiment 3 blood urea nitrogen (BUN) and body weight in ICR mice; settings: for Difference of weights: average weight 12th day vs 1st day; for BUN value: blood on 12th day, control 27.2 ± 1.9
Procedure: as §1, §2

L1210 cells = assay: Experiment 2 growth inhibition of L1210 cells; format: cell-based, mouse; settings: text calls it IC50
Procedure: The drug sensitivity (a) was determined according to the following equation. [formula]

Row | Molecule | T/C ([1]; dose 50 mg/kg) [%] | Number of survived mice (on 30th day) ([1]; dose 50 mg/kg) | T/C ([1]; dose 100 mg/kg) [%] | Number of survived mice (on 30th day) ([1]; dose 100 mg/kg) | T/C ([1]; dose 12.5 mg/kg) [%] | Number of survived mice (on 30th day) ([1]; dose 12.5 mg/kg) | T/C ([1]; dose 25 mg/kg) [%] | Number of survived mice (on 30th day) ([1]; dose 25 mg/kg) | IC50 L1210/CDDP [3] [µg/mL] | further results
1 | CC(CN)(CN)C(F)(F)F.O=C([O-])C1(C(=O)[O-])CCC1.[Pt+2] [Compound of Ex. 2, cis-(2-methyl-2-trifluoromethyl-1,3-propanediamine)-1,1-cyclobutanedicarboxylato platinum (II)] | 192 | 0/6 | 267 | 0/6 | – | – | – | – | – | –
2 | cis-dichloro-(2-methyl-2-trifluoromethyl-1,3-propanediamine)platinum (II) [Compound of Ex. 1] | 273 | 0/6 | – | – | > 304 | 3/6 | 375 | 6/6 | 0.10 | BUN value ([2]; 25 mg/kg): 23.3 mg/dL; Difference of weights ([2]; 25 mg/kg): -2.3 g; BUN value ([2]; 50 mg/kg): 17.8 mg/dL; Difference of weights ([2]; 50 mg/kg): -5.4 g
3 | N.N.[Cl][Pt][Cl] [CDDP, cis-dichlorodiamine platinum (II)] | – | – | – | – | 282 | 1/6 | 367 | 4/6 | 0.50 | Difference of weights ([4]; dose 18 mg/kg on days 1, 5, 9): -4.8 g; BUN value ([4]; dose 18 mg/kg on days 1, 5, 9): 83.7 mg/dL; Difference of weights ([4]; dose 25 mg/kg on days 1, 5, 9): -8.9 g; BUN value ([4]; dose 25 mg/kg on days 1, 5, 9): 112.3 ± 16.6 mg/dL; T/C ([1]; dose 6.25 mg/kg): 227%; Number of survived mice (on 30th day) ([1]; dose 6.25 mg/kg): 0/6
4 | N.N.O=C([O-])C1(C(=O)[O-])CCC1.[Pt+2] [CBDCA, cisdiamino-1,1-cyclobutanedicarboxylato platinum (II)] | 340 | 2/6 | 366 | 2/6 | 139 | 0/6 | 199 | 0/6 | 1.82 | Difference of weights ([4]; dose 100 mg/kg on days 1, 5, 9): -3.0 g; BUN value ([4]; dose 100 mg/kg on days 1, 5, 9): 21.0 ± 4.0 mg/dL; IC50 (L1210 cells): 0.25 µg/mL
